Measured values taken from ChEMBL document CHEMBL2074104, “Interaction of cysteine conjugates with human and rabbit organic anion transporter 1” (J Pharmacol Exp Ther, 2003).

Columns and labels:
[1] = biological target: T1, Solute carrier family 22 member 6 (Homo sapiens, UniProt Q4U2R8); assay: TP_TRANSPORTER: inhibition of PAH uptake in OAT1-expressing CHO cells; type: functional, cell-based
T1 sequence (Q4U2R8 whole entry): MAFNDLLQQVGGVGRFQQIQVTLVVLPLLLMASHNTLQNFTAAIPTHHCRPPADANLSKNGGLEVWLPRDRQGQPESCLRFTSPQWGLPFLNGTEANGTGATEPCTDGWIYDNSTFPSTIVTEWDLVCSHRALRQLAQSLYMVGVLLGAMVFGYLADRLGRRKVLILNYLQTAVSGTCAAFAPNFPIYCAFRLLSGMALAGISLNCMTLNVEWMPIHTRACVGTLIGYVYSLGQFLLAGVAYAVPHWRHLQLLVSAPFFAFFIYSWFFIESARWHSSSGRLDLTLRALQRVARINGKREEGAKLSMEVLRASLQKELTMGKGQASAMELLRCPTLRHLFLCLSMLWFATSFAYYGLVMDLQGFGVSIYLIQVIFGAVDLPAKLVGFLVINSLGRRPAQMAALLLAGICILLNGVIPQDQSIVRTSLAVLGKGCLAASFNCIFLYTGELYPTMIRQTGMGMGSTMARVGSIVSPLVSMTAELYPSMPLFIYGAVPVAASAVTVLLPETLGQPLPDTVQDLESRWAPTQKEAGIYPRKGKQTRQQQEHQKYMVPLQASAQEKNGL

[2] = biological target: T1, Solute carrier family 22 member 6; assay: TP_TRANSPORTER: trans-stimulation in OAT1-COS7 cells; type: functional, cell-based, COS-7
[3] = biological target: T1, Solute carrier family 22 member 6; assay: TP_TRANSPORTER: inhibition of PAH uptake in OAT1-COS7 cells; type: functional, cell-based, COS-7

In the case of `N[C@@H](CSc1nc2ccccc2s1)C(=O)O`, the IC50 [1] is reported as 9.9 µM.

Work on `N[C@H](CSc1nc2ccccc2s1)C(=O)O` [BENZOTHIAZOLYLCYSTEINE] yielded an IC50 [2] of 9.9 µM.

`N[C@H](CS/C(Cl)=C/Cl)C(=O)O` was tested, and the IC50 [3] was 208 µM.
